The source made the active and inactive calls.
Assays:
[1] = target: T1, Streptokinase A (Streptococcus pyogenes serotype M1, UniProt P10520); test: viability-normalized secreted streptokinase activity reduction – plasminogen activation absorbance, OD405, dose response (AID 1914); type: functional, Streptococcus pyogenes M1 GAS;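 further: secreted streptokinase activity via plasminogen activation per viability signal from cell pellet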
T1 sequence (P10520 whole entry): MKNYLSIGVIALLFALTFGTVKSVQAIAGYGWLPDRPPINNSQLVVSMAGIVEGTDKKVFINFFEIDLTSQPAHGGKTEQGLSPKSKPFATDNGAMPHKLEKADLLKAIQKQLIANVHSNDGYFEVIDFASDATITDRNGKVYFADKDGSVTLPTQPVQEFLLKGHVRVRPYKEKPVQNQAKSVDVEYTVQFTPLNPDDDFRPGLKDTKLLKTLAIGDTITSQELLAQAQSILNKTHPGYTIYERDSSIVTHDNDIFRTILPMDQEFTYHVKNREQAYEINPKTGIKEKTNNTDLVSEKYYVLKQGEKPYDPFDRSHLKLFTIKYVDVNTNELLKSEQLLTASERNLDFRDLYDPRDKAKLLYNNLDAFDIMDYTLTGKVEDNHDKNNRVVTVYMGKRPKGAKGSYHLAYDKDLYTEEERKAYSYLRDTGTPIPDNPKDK

[2] = SNU-C1 cell viability reduction, dose response, CellTiter-Glo luminescence (AID 1117323); type: functional, cell-based
[3] = cytotoxicity toward HT-29 cells – cell-based, CellTiter-Glo luminescence, IC50, dose response (AID 1117330); type: functional
[4] = target: cAMP-dependent protein kinase catalytic subunit alpha (Homo sapiens, UniProt P17612); type: functional
[5] = target: Casein kinase I isoform gamma-1 (Homo sapiens, UniProt Q9HCP0); type: functional;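 further: measured as the CSNK1G1 member of a kinome profiling panel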
[6] = target: Macrophage-stimulating protein receptor (Homo sapiens, UniProt Q04912); test: Navigating the Kinome. Panel member name: MST1R; type: functional
[7] = target: Fibroblast growth factor receptor 3 (Homo sapiens, UniProt P22607); type: functional
[8] = target: Serine/threonine-protein kinase Nek4 (Homo sapiens, UniProt P51957); type: functional
[9] = target: Serine/threonine-protein kinase Chk2 (Homo sapiens, UniProt O96017); type: functional;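 further: CHEK2 entry within a kinome-wide screening panel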
[10] = target: Serine/threonine-protein kinase 3 (Homo sapiens, UniProt Q13188); type: functional;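 further: measured as one member of a kinome-wide kinase panel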
[11] = target: Proto-oncogene tyrosine-protein kinase receptor Ret (Homo sapiens, UniProt P07949); type: functional;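 further: measured within a kinome-wide profiling panel, RET as the panel member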
[12] = target: Vascular endothelial growth factor receptor 3 (Homo sapiens, UniProt P35916); type: functional;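 further: value from a kinome-wide profiling panel, with FLT4 as the panel member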
[13] = target: Cyclin-dependent kinase 8 (Homo sapiens, UniProt P49336); test: Navigating the Kinome. Panel member name: CDK8; type: functional
[14] = target: Serine/threonine-protein kinase PAK 1 (Homo sapiens, UniProt Q13153); type: functional
[15] = target: Misshapen-like kinase 1 (Homo sapiens, UniProt Q8N4C8); type: functional;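 further: kinome panel screen with MINK as the panel member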
[16] = target: cAMP-dependent protein kinase catalytic subunit PRKX (Homo sapiens, UniProt P51817); type: functional
[17] = target: Testis-specific serine/threonine-protein kinase 2 (Homo sapiens, UniProt Q96PF2); type: functional;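 further: part of the Navigating the Kinome panel, target entry STK22B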
[18] = target: Tyrosine-protein kinase Lyn (Homo sapiens, UniProt P07948); type: functional;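 further: lyn as one member of a kinase panel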
[19] = target: Protein kinase C zeta type (Homo sapiens, UniProt Q05513); type: functional;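 further: measured as one member of a broad kinase profiling panel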
[20] = target: Receptor tyrosine-protein kinase erbB-2 (Homo sapiens, UniProt P04626); test: Navigating the Kinome. Panel member name: ERBB2; type: functional
[21] = target: Homeodomain-interacting protein kinase 4 (Homo sapiens, UniProt Q8NE63); type: functional
[22] = target: Mitogen-activated protein kinase 13 (Homo sapiens, UniProt O15264); type: functional
[23] = target: Tyrosine-protein kinase SYK (Homo sapiens, UniProt P43405); type: functional
[24] = target: Inhibitor of nuclear factor kappa-B kinase subunit epsilon (Homo sapiens, UniProt Q14164); test: Navigating the Kinome. Panel member name: IKBKE; type: functional
[25] = target: Serine/threonine-protein kinase PLK3 (Homo sapiens, UniProt Q9H4B4); type: functional
[26] = target: T2, Cysteine protease ATG4B (Homo sapiens, UniProt Q9Y4P1); type: functional;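 further: Fluorescence-based dose-response confirmation assay measuring inhibition of ATG4B activity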
T2 sequence (Q9Y4P1 whole entry): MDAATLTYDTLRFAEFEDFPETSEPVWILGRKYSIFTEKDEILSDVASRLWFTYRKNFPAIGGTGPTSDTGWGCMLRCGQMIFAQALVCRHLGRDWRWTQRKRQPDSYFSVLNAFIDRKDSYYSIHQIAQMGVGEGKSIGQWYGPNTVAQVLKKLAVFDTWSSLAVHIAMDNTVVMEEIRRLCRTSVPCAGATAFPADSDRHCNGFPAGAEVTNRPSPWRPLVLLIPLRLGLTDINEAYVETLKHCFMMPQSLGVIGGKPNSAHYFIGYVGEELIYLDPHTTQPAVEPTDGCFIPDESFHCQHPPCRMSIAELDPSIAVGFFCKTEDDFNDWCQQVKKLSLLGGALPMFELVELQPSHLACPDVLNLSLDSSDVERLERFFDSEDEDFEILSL

[27] = target: Tyrosyl-DNA phosphodiesterase 2 (Homo sapiens, UniProt O95551); test: potency against TDP2 phosphodiesterase activity – biochemical, epi absorbance, IC50, dose response (AID 743297)
[28] = system: HEK293; test: cells; type: functional, cell-based; details: Homo sapiens
[29] = system: HEK293; test: NOD2 signaling inhibitors in MDP-stimulated cells, cell-based, uHTS, luminescence (AID 2001); type: functional; details: Homo sapiens

Tyrosine-protein kinase Lyn, sequence (P07948 whole entry): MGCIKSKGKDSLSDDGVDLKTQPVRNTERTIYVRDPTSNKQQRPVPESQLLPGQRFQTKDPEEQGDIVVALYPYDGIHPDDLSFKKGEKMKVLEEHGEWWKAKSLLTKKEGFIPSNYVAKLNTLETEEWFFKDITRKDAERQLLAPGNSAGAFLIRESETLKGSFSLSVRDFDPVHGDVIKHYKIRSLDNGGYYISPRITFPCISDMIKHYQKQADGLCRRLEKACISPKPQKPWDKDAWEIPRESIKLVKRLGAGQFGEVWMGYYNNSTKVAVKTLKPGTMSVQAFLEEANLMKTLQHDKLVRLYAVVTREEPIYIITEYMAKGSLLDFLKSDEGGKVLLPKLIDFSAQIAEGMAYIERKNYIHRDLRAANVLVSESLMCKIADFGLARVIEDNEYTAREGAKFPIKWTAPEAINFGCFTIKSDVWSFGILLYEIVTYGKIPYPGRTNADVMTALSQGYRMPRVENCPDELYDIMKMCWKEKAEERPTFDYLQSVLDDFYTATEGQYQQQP
Serine/threonine-protein kinase 3, sequence (Q13188 whole entry): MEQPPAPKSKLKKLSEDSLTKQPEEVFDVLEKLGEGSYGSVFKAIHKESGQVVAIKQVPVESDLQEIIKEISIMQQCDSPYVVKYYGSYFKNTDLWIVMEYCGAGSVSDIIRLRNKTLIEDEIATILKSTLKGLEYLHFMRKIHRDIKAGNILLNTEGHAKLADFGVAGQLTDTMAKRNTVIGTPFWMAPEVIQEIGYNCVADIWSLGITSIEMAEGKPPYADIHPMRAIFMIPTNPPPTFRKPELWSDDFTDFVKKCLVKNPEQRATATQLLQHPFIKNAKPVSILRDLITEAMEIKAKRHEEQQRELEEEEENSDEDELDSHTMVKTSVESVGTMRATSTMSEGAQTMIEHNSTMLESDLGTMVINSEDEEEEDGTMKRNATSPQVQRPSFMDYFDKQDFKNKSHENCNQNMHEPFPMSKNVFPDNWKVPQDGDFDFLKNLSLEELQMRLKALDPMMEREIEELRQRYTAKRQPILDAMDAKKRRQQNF
Misshapen-like kinase 1, sequence (Q8N4C8 whole entry): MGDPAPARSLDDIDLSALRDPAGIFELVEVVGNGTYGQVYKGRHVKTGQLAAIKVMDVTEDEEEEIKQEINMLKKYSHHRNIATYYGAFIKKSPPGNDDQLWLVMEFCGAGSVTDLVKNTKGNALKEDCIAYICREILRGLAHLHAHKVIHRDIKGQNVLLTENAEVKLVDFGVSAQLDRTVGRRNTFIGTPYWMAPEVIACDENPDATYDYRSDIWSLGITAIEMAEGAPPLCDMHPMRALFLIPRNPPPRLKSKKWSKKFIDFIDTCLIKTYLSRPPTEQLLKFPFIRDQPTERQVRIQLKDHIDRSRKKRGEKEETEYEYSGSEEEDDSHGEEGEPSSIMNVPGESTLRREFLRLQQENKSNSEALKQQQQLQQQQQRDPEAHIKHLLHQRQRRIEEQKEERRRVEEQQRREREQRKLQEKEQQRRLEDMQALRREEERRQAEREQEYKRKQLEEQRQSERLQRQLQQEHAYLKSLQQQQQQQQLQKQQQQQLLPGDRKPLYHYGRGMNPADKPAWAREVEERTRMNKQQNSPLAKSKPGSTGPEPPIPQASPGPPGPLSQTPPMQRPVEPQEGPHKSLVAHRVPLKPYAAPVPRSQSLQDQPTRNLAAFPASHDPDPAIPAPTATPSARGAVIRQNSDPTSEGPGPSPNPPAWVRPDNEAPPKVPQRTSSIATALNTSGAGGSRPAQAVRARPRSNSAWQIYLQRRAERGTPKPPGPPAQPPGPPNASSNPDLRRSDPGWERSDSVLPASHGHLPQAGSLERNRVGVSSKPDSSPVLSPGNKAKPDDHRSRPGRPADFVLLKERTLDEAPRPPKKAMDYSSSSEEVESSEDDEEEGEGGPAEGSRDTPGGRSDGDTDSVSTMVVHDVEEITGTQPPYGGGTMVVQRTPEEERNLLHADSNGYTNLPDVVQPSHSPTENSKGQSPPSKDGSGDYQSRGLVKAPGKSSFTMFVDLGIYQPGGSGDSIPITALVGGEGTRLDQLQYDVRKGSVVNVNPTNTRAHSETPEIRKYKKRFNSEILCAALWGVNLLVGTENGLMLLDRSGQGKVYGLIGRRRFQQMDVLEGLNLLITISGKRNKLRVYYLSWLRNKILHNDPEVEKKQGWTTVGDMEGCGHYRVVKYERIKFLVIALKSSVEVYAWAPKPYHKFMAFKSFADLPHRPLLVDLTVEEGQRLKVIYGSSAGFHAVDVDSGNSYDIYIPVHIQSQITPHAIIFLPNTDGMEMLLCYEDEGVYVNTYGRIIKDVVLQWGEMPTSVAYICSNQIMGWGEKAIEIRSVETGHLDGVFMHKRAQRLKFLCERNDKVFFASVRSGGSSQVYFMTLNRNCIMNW
Vascular endothelial growth factor receptor 3, sequence (P35916 whole entry): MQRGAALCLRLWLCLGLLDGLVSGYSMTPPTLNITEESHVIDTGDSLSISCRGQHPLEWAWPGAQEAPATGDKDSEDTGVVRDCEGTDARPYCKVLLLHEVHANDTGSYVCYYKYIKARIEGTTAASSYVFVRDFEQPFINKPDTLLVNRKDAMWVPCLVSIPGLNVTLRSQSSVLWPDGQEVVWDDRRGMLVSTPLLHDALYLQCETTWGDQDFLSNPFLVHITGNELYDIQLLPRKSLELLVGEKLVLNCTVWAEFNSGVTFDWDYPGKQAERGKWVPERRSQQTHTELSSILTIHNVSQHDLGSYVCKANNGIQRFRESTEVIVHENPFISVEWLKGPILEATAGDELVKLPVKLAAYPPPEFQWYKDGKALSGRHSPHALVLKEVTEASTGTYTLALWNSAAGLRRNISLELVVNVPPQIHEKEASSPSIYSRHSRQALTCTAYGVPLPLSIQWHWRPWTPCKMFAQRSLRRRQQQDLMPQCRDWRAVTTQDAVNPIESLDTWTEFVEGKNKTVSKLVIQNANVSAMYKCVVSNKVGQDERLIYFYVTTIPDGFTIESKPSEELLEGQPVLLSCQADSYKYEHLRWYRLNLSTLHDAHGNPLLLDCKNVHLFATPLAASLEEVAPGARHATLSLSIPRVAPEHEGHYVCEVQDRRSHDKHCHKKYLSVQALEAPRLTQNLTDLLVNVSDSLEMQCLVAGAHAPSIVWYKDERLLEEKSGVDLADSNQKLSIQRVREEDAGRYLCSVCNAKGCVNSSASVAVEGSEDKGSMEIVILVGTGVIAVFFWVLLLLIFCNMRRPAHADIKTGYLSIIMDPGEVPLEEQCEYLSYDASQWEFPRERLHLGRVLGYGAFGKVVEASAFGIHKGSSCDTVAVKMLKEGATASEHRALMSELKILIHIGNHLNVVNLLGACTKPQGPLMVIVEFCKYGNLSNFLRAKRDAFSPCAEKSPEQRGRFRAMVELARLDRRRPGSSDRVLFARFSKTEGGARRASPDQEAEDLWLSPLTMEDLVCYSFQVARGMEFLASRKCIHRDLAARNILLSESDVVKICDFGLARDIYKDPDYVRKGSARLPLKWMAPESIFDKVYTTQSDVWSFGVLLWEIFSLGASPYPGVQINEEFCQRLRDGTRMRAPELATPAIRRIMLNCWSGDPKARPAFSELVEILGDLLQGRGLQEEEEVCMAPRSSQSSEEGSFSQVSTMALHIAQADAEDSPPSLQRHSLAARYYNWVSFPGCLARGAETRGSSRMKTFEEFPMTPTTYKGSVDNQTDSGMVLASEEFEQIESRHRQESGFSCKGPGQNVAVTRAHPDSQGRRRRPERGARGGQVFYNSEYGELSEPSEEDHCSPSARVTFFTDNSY
Mitogen-activated protein kinase 13, sequence (O15264 whole entry): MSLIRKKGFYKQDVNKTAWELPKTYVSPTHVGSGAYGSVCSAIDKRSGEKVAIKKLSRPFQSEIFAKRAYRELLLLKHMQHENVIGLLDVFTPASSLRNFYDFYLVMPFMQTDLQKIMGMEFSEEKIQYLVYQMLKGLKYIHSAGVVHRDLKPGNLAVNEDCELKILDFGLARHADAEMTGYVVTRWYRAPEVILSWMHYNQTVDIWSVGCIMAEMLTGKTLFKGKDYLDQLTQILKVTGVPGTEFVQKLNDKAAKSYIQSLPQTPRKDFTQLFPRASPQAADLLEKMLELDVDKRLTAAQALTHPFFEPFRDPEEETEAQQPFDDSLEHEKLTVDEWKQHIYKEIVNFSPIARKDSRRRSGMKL
Fibroblast growth factor receptor 3, sequence (P22607 whole entry): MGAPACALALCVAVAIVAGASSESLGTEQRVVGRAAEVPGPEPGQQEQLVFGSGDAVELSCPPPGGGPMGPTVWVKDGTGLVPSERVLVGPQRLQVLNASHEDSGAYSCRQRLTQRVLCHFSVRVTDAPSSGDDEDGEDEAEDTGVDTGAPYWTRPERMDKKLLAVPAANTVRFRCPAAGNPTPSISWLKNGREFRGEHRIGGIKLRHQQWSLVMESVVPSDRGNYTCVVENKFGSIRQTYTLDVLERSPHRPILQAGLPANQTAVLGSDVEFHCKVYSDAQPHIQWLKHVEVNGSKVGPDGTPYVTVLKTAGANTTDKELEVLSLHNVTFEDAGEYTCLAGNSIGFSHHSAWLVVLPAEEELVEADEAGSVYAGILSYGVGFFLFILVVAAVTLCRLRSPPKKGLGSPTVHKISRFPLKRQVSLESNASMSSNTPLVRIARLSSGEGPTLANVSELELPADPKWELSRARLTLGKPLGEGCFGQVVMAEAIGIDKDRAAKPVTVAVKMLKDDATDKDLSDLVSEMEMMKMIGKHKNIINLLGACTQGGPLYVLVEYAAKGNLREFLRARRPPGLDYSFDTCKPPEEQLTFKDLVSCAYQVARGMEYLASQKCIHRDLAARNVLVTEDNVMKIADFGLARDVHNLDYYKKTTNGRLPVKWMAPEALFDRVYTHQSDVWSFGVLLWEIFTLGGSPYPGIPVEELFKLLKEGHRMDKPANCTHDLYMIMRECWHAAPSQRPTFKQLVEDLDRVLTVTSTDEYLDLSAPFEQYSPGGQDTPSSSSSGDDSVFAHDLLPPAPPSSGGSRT

CCc1oc2ccccc2c1C(=O)c1cc(Br)c(O)c(Br)c1 [BENZBROMARONE]
active: IC50 [2] 0.105 µM | IC50 [3] 1.14 µM
inconclusive: EC50 [1] 17.2 µM

N#Cc1ccc2[nH]c(O)c(-c3ccc(CN4CCOCC4)cn3)c2c1 [AZD-1080]
active: Ki [15] 6.31 µM
inactive: Ki [4] > 3.16 µM | Ki [5] > 6.31 µM | Ki [6] > 3.98 µM | Ki [7] > 2 µM | Ki [8] > 6.31 µM | Ki [9] > 1.58 µM | Ki [10] > 7.94 µM | Ki [11] > 2.51 µM | Ki [12] > 6.31 µM | Ki [13] > 3.98 µM | Ki [14] > 10 µM | Ki [16] > 2.51 µM | Ki [17] > 1.58 µM | Ki [18] > 1.58 µM | Ki [19] > 7.94 µM | Ki [20] > 1.58 µM | Ki [21] > 7.94 µM | Ki [22] > 7.94 µM | Ki [23] > 1.58 µM | Ki [24] > 3.16 µM | Ki [25] > 7.94 µM

O=C1C=C(N2CCOCC2)c2ccccc2C1=O
inactive: IC50 [29] 10.3 µM
active: IC50 [26] 7.07 µM | IC50 [27] 2.55 µM | IC50 [28] 13.6 µM
